According to article PMC9780499, “Designing double-site lipidated peptide amphiphiles as potent antimicrobial biomaterials to combat multidrug-resistant bacteria” (Frontiers in Microbiology, 2022):
Values after ≈ are worked out from the molar mass of the structure shown. Peptide text beside a SMILES is read from it. * marks the point of attachment. Octanoyl = CCCCCCCC(=O)*; Hexanoyl = CCCCCC(=O)*

Tests used:
[1] = system: E. coli 25922; format: cell-based, Escherichia coli; settings: 25922, 20 h
Excerpt: (§1) Escherichia coli ATCC25922, E. coli UB1005, Pseudomonas aeruginosa ATCC27853, Salmonella typhimurium ATCC14028, S. typhimurium C7731, Staphylococcus aureus ATCC29213, Methicillin-resistant S. aureus (MRSA) ATCC43300, S. epidermidis ATCC12228, and Enterococcus faecalis ATCC29212 were stored by the institute of animal nutrition, Northeast Agricultural University (Harbin, China). Multidrug-Resistant E. coli HP73 and E. coli HP74 were clinically isolated from swine-derived Escherichia coli and stored by the institute of animal nutrition, Northeast Agricultural University (Harbin, China).
(§2) The MICs were determined using a broth microdilution method with reference to Clinical and Laboratory Standards Institute (CLSI) guidelines ([Wiegand et al., 2008]). After a two-fold serial dilution of the peptides (50 μl, dilution buffer: 0.01% acetic acid containing 0.2% BSA) prepared in a 96-well plate, a series of an equal volume of bacterial solution (50 μl) prepared in Mueller-Hinton broth (MHB) were added to the same 96-well plate, and the final bacterial inoculum size in each well of the 96-well plate was approximately 5 × 10^5 CFU/ml. As positive and negative controls, bacteria solution without peptides and blank samples without bacteria were prepared in the same 96-well plate. […] The lowest peptide concentration at which there was no increase in optical density was referred to as the MIC.

[2] = system: E. coli UB1005; format: cell-based, Escherichia coli; settings: UB1005, 20 h
Excerpt: as §1, §2

[3] = system: P. aeruginosa 27853; format: cell-based, Pseudomonas aeruginosa; settings: 27853, 20 h
Excerpt: as §1, §2

[4] = system: S. typhimurium 14028; format: cell-based, Salmonella typhimurium; settings: 14028, 20 h
Excerpt: as §1, §2

[5] = system: S. typhimurium C7731; format: cell-based, Salmonella typhimurium; settings: C7731, 20 h
Excerpt: as §1, §2

[6] = system: S. aureus 29213; format: cell-based, Staphylococcus aureus; settings: 29213, 20 h
Excerpt: as §1, §2

[7] = system: S. epidermidis 12228; format: cell-based; settings: 12228, 20 h
Excerpt: as §1, §2

[8] = system: E. faecalis 29212; format: cell-based, Enterococcus faecalis; settings: 29212, 20 h
Excerpt: as §1, §2

[9] = system: MRSA 43300; format: cell-based, Methicillin-resistant S. aureus; settings: 43300, 20 h
Excerpt: as §1, §2

[10] = system: 9 bacterial strains; assay: Geometric mean MIC over the 9 bacterial strains; format: cell-based; settings: geometric mean of the 9 strains of Table 1
Experimental: as §2

[11] = system: E. coli HP73; assay: microbe, parasite or virus in culture; format: cell-based, Escherichia coli; settings: HP73, 20 h; read-out: MICs, E. coli HP73
Excerpt: as §1, §2

[12] = system: E. coli HP74; assay: microbe, parasite or virus in culture; format: cell-based, Escherichia coli; settings: HP74, 20 h; read-out: MICs, E. coli HP74
Excerpt: as §1, §2

[13] = system: HEK293T; assay: MTT cytotoxicity assay; format: cell-based, human
Experimental: (§3) 3-(4,5-dimethylthiozol-2-yl)-2,5-diphenyltetrazolium bromide (MTT) assay and live/dead cell staining assay were conducted to assess the peptide cytotoxicity. For the MTT assay, cell lines were seeded and passaged twice in high-glucose Dulbecco’s modified Eagle’s medium (DMEM, containing 100 μg/ml streptomycin, 100 U/ml penicillin, and 10% vol/vol fetal bovine serum) or Dulbecco’s Modified Eagle Medium/Nutrient Mixture F-12 (DMEM/F-12, containing 100 μg/ml streptomycin, 100 U/ml penicillin, and 10% vol/vol fetal bovine serum) at a 5% CO2 incubator (37°C). The cells (approximately 50,000 cells per well) were cultured in a 96-well plate at a 5% CO2 incubator for 1 day. Then various concentrations of peptide solutions (50 μl) were added to the plate and incubated for another 1 day. The cells solution without peptides and blank samples without cells and peptides were prepared in the same 96-well plate as positive and negative controls, respectively. Subsequently, MTT (0.5 mg/ml, 20 μl per well) was added and the plate was incubated for another 4 h. Removed all supernatant from the plate and added 150 μl of dimethyl sulfoxide. Finally, a microplate reader (Tecan GENios F129004, Austria) was used to record the absorbance data at OD570 nm. Melittin was employed as a control peptide. The cell viability was calculated using the previously described equation ([Lai et al., 2021]).

[14] = system: HEK293; assay: Live/dead cell staining (calcein-AM/PI); format: cell-based, human; settings: peptide concentration less than 64 μM
Excerpt: For live/dead cell staining assay, HEK293 cell lines, calcein-AM, and propidium iodide (PI) were employed to assess the cell viability. The processes that come next are the same as in the prior report ([Lai et al., 2021]). There were two technical replicates used in the experiment.

[15] = system: IPEC-J2; assay: MTT cytotoxicity assay; format: cell-based, porcine
Experimental: as §3

[16] = target: proteinase K (Parengyodontium album, UniProt P06873); assay: Proteolytic stability, tricine-SDS-PAGE; format: in vitro ADME; settings: peptide 2.56 mM + 500 μg/ml protease (equal volumes), 16.5% tricine-SDS-PAGE
Chain of proteinase K (P06873 106-384): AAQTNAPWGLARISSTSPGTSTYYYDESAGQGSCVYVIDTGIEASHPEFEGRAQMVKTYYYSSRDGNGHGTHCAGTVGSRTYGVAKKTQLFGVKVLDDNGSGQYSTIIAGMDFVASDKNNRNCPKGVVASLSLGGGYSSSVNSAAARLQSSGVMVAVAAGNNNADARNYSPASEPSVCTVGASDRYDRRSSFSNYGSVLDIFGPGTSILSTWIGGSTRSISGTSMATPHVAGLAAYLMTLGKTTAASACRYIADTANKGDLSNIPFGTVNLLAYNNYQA
Experimental: 16.5% tricine−SDS − PAGE was used to evaluate the proteolytic stability of the peptides. The peptides (2.56 mM, 50 μl) were incubated with protease (500 μg/ml, 50 μl) at 37°C. After incubating for 1, 2, 4, or 8 h, the mixture (20 μl) was drawn out and placed in a bath of boiling water for 5 min. The mixture was then diluted to the suitable concentration for 16.5% tricine-SDS-PAGE analysis.

[17] = peptide concentration less than 64 μM

| Structure (SMILES) | MICs, E. coli 25922 [1] [µM] | MICs, E. coli UB1005 [2] [µM] | MICs, P. aeruginosa 27853 [3] [µM] | MICs, S. typhimurium 14028 [4] [µM] | MICs, S. typhimurium C7731 [5] [µM] | MICs, S. aureus 29213 [6] [µM] | MICs, S. epidermidis 12228 [7] [µM] | MICs, E. faecalis 29212 [8] [µM] | MICs, MRSA 43300 [9] [µM] | GM, geometric mean MICs from the 9 bacterial strains [10] [µM] | MIC [11] [µM] | MIC [12] [µM] | Toxicity toward HEK293T [13, 17] | Toxicity toward HEK293 [14] | Toxicity toward IPEC-J2 [15, 17] | Stability to proteinase K (band on gel) ([16]; 37°C, 1, 2, 4, 8 h) | Digestion period beyond which the bands gradually vanished, proteinase K ([16]; 37°C) [h] | Concentration above which significant cytotoxicity toward HEK293T ([13]; 1 day incubation) | Concentration above which significant cytotoxicity toward IPEC-J2 ([15]; 1 day incubation) |
| --- | --- | --- | --- | --- | --- | --- | --- | --- | --- | --- | --- | --- | --- | --- | --- | --- | --- | --- | --- |
| CCCCCC(=O)NCCCC[C@H](NC(=O)[C@H](CC(C)C)NC(=O)[C@H](CCCCN)NC(=O)[C@H](CCCCN)NC(=O)[C@H](CC(C)C)NC(=O)[C@H](CCCCNC(=O)CCCCC)NC(=O)[C@H](CCCCN)NC(=O)[C@H](CCCCN)NC(=O)[C@H](CC(C)C)NC(=O)[C@H](CCCCN)NC(=O)[C@H](CCCCN)NC(=O)[C@H](CC(C)C)NC(=O)[C@@H](N)Cc1c[nH]c2ccccc12)C(=O)N[C@@H](CCCCN)C(=O)N[C@@H](CCCCN)C(=O)O [WL-C6] (H-WLKKLKKK(Hexanoyl)LKKLK(Hexanoyl)KK-OH) | 4 | 4 | 2 | 2 | 4 | 4 | 4 | 4 | 4 | 3.43 | 4 (≈ 8.54 µg/mL) | 4 (≈ 8.54 µg/mL) | negligible toxicity | negligible toxicity | negligible toxicity | cleaved by proteinase K | > 1 |  |  |
| CCCCCCCC(=O)NCCCC[C@H](NC(=O)[C@H](CC(C)C)NC(=O)[C@H](CCCCN)NC(=O)[C@H](CCCCN)NC(=O)[C@H](CC(C)C)NC(=O)[C@H](CCCCNC(=O)CCCCCCC)NC(=O)[C@H](CCCCN)NC(=O)[C@H](CCCCN)NC(=O)[C@H](CC(C)C)NC(=O)[C@H](CCCCN)NC(=O)[C@H](CCCCN)NC(=O)[C@H](CC(C)C)NC(=O)[C@@H](N)Cc1c[nH]c2ccccc12)C(=O)N[C@@H](CCCCN)C(=O)N[C@@H](CCCCN)C(=O)O [WL-C8] (H-WLKKLKKK(Octanoyl)LKKLK(Octanoyl)KK-OH) | 4 | 2 | 4 | 4 | 4 | 4 | 4 | 4 | 4 | 3.70 | 4 (≈ 8.76 µg/mL) | 4 (≈ 8.76 µg/mL) |  |  |  |  |  | greater than 32 μM | greater than 32 μM |
